From PubChem BioAssay (NCI) come the findings set out here.

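Growth conditions: 96-well plates. Treatment: test compound, 48 hours, 5 concentrations. Analysis: linear interpolation between bracketing concentrations; unreached endpoints set to highest concentration. TGI denotes the concentration required for complete inhibition of growth.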

Holding throughout (experiment): growth of human tumour cells (NCI), 48 h
Assay [1] concerns A498 renal.
Assay [2] has as its system EKVX NSCLC.
Assay [3] relates to HL-60(TB) leukemia.
Assay [4] relates to HOP-62 NSCLC.
Assay [5] has as its system HT29 colon.
The subject of assay [6] is MALME-3M melanoma.
Assay [7] relates to NCI-H522 lung.
The test system of assay [8] is OVCAR-3 ovarian.
Assay [9] has as its system SK-MEL-28 melanoma.
Assay [10] deals with SN12C renal.
In assay [11] the test system is SNB-75 CNS.
The subject of assay [12] is TK-10 renal.

For `COc1cc(/C=C2\CC3C4CC=C5C[C@@H](O)CC[C@]5(C)C4CC[C@]3(C)\C2=N\O)cc(OC)c1OC` (some centres not stated), the TGI in [1] is 42.6 µM; in [2] it was greater than 100 µM; in assay [3] it was greater than 100 µM; in assay [4], greater than 100 µM; in assay [5] it was greater than 100 µM; in [6], 50 µM. In addition, the TGI in assay [7] was greater than 100 µM; in assay [8], 61.4 µM; in assay [9] it was greater than 100 µM; in [10], 54.1 µM; in [11], greater than 100 µM; in assay [12] it was greater than 100 µM.
`C[N+](C)(N)Cc1nc(-c2ccc(Cl)cc2)no1`: the TGI in assay [1], in [2], in assay [3], in assay [4], in [5] and in assay [6] was greater than 100 µM in each case. The TGI in [7], in assay [8], in [9], in [10], in assay [11] and in [12] was greater than 100 µM throughout.
Turning to `O=c1[nH]nc(-c2ccc3ccccc3c2)[nH]1`, the TGI in [1] is greater than 100 µM; in [2], 64.4 µM; in assay [3], greater than 100 µM; in assay [4] it was greater than 100 µM; in [5], greater than 100 µM; in assay [6], greater than 100 µM. In addition, the TGI in assay [7], in assay [8], in assay [9], in assay [10], in assay [11] and in assay [12] was greater than 100 µM in each case.
For `C/C(=N/NC(=S)N1CCCCCC1)c1cccc(/C(C)=N\NC(=S)N2CCCCCC2)n1`, the TGI in [1] came out at 2.85 µM; in assay [2], 7.98 µM; in [3] it was 5.26 µM; in assay [4], 3.82 µM; in [5] it was 4.65 µM; in [6], 2.28 µM. Also, the TGI in assay [7] was determined as 6.42 µM; in [8] it was 2.59 µM; in [9], 6 µM; in assay [10], 4.57 µM; in [11], 4.68 µM; in [12], 3.29 µM.
Consider `Cc1ccc2[nH]c3c(c2c1)C1CCC(C(C)(C)C)CC1C1C(=O)N(c2ccc(Oc4ccccc4)cc2)C(=O)C31` (configuration not stated), for which the TGI in assay [1] is 31.5 µM; in assay [2] it was greater than 100 µM; in [3], 8.09 µM; in assay [4], greater than 100 µM; in assay [5], greater than 100 µM; in assay [6] it was 41.9 µM. Moreover, the TGI in assay [7] was 45 µM; in [8], 35.4 µM; in assay [9], greater than 100 µM; in [10], 37 µM; in [11], 9.08 µM; in [12], 84.4 µM.
In the case of `CCOC(=O)Cn1nnc2ccc(Nc3nc4ccccc4nc3C(=O)OCC)cc21`, the TGI in assay [1], in [2], in [3], in [4], in [5] and in assay [6] was greater than 100 µM each time. Also, the TGI in [7] is greater than 100 µM; in [8] it was greater than 100 µM; in assay [9], greater than 100 µM; in assay [10], greater than 100 µM; in assay [11] it was 46.5 µM; in [12] it was greater than 100 µM.
For `O=C1O/C(=C(\Br)c2ccc([N+](=O)[O-])cc2)c2ccccc21`, the TGI is greater than 100 µM in [1]; greater than 100 µM in assay [2]; greater than 67.1 µM in [3]; greater than 100 µM in assay [4]; greater than 88.5 µM in assay [5]; greater than 100 µM in assay [6]. Also, the TGI in assay [7] is greater than 88.8 µM; in [8] it was greater than 100 µM; in assay [9], greater than 100 µM; in [10], greater than 100 µM; in assay [11] it was greater than 100 µM; in assay [12], greater than 100 µM.
As for `OC1C2CN3CCN(C2)CC1(c1ccccc1)C3` (configuration not stated), the TGI in [1], in assay [2], in assay [3], in [4], in [5] and in assay [6] was greater than 100 µM throughout. Further, the TGI in [7], in assay [8], in assay [9], in assay [10], in assay [11] and in assay [12] was greater than 100 µM throughout.
As to `CC(C)C(Sc1nc(-c2ccccc2)c(-c2ccccc2)[nH]1)C(=O)N/N=C/c1ccc(Cl)cc1` (configuration not stated), the TGI in assay [1] amounted to 43.2 µM; in [2], 67.6 µM; in [3], 56.6 µM; in assay [4], 42.5 µM; in [5], 36.9 µM; in [6], 47.7 µM. Besides, the TGI in [7] is 41.7 µM; in assay [8], 35.5 µM; in assay [9], 45.2 µM; in assay [10], 36.3 µM; in assay [11], 67.6 µM; in assay [12] it was greater than 100 µM.
`c1ccc(CCCN2C3CCC2CN(CCOC(c2ccccc2)c2ccccc2)C3)cc1`: the TGI in assay [1] came out at 21.8 µM; in [2], 19.9 µM; in assay [3], 23.1 µM; in assay [4], 31.4 µM; in assay [5] it was 14.8 µM; in assay [6] it was 25.2 µM. Besides, the TGI was determined as 23 µM in [7]; 30.4 µM in [8]; 28.2 µM in assay [9]; 24.8 µM in assay [10]; 20.8 µM in assay [11]; 25.6 µM in assay [12].
As for `Nc1nc(N)c2cc(-c3cc4ccccc4[nH]3)ccc2n1`, the TGI is 32.7 µM in assay [1]; 95 µM in assay [2]; 47.7 µM in assay [3]; greater than 100 µM in assay [4]; 38.9 µM in [5]; 30.4 µM in [6]. In addition, the TGI in [7] is 42.4 µM; in assay [8], greater than 100 µM; in assay [9] it was 48.7 µM; in assay [10], greater than 100 µM; in assay [11], greater than 100 µM; in [12], 37.2 µM.
